From article PMC12006171, “Marsupial cathelicidins: characterization, antimicrobial activity and evolution in this unique mammalian lineage” (Frontiers in Immunology, 2025)
≈ marks a conversion by molar mass, not a printed value. Read-outs that look alike come from different tables or passages of the source. Where a SMILES comes first, the peptide text is derived from it.

Assays:
[1] = system: three fungi (Candida krusei, Candida parapsilosis, Candida albicans); experiment: Antifungal screening, summary over the panel of fungi (broth microdilution); format: cell-based; conditions: synthesized mature peptide
Experimental: Antimicrobial testing of 78 cathelicidin MPs was performed in two phases as outlined in Figure 1 . In phase I, 40 peptides (27 extant and 13 ancestral) were selected for testing based on rank (outlined above) and similarity to published marsupial cathelicidins with known antimicrobial activity ([33], [41]–[43]). These peptides were tested against nine bacteria (Staphylococcus aureus ATCC 29213 and clinical isolate, Escherichia coli ATCC 25922 and clinical isolate, Pseudomonas aeruginosa ATCC 27853 and clinical isolate, Streptococcus agalactiae ATCC 12386 and clinical isolate, Streptococcus pneumoniae ATCC 49619) and three fungi (Candida krusei ATCC 6258, Candida parapsilosis ATCC 22019, and Candida albicans clinical isolate). Details regarding these strains are available in Supplementary Table 4 . The antimicrobial activity of cathelicidins was determined as the minimum inhibitory concentration (MIC), which was the lowest concentration of cathelicidin that prevented visible bacterial or fungal growth, relative to the negative control. […] Minimum bactericidal concentration (MBC) and/or minimum fungicidal concentration (MFC) was conducted to determine microbicidal versus static action. Activity against S. aureus ATCC, E. coli ATCC, and Pseudomonas aeruginosa ATCC 27853 was examined in the presence of divalent cations to determine the impact of inhibitors.
Antimicrobial activity was determined using a broth microdilution susceptibility assay in 96 well polypropylene plates according to Clinical Laboratory Standards Institute guidelines M07-A and M26A as described previously ([33], [42], [43]). The bacterial and fungal isolates from humans and animals used in this study are outlined in Supplementary Table 4 . Only yeasts were included in the panel of fungi as they have been used in the susceptibility testing of eutherian ([3], [81]–[83]) and other marsupial cathelicidins previously ([33], [42], [43]). Cathelicidin mature peptides were solubilized in DMSO and serially diluted in duplicate from 128-0.25μg/mL in a final volume of 100µL. For bacteria, cathelicidins were diluted in Mueller Hinton Broth (MHB) with or without 10% lysed horse blood, and with (MH II B) or without (MHB) calcium and magnesium cations. For fungi, cathelicidins were diluted in Roswell Park Memorial Institute medium (RPMI)-1640 MOPS. Ampicillin or tetracycline were included as a positive control for Gram-positive and -negative bacteria respectively, while amphotericin B was used for fungi. A media-only negative control and growth control (no cathelicidin) were also included on each plate. Bacteria were sub-cultured on Muller Hinton agar (MHA) or sheep blood agar (BA), and fungi on Sabouraud dextrose agar (SAB), 20–24 hours prior to the test. Colonies were suspended in saline, the concentration adjusted to a 0.5 McFarland standard, and then diluted in media to a concentration of 1.0 x 10^6 cells/mL. Then, 100μL was added to each well of the cathelicidin dilution plate, giving a final inoculum density of 5 x 10^5 CFU/mL and cathelicidin concentration of 64-0.125μg/mL. Colony counts were performed on MHA/BA/SAB to confirm inoculum density. All plates were incubated at 35°C for 20–24 hours, depending on the strain.
Colonies were counted and compared to the colony count of the starting inoculum.

[2] = system: six bacteria (S. aureus, E. coli, P. aeruginosa; ATCC and clinical isolate); format: cell-based; conditions: synthesized mature peptide
In short: (§1)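 Bacteria at a final 5 x 10^5 CFU/mL were incubated 20–24 h at 35 °C with DMSO-solubilized peptides serially diluted to 64–0.125 μg/mL in Mueller Hinton broth (± lysed horse blood, ± divalent cations). MIC read as no visible growth; bactericidal action from colony counts compared with the inoculum.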

[3] = system: Staphylococcus aureus clinical isolate – animal, methicillin-resistant (MRSA); format: cell-based; conditions: clinical isolate – animal, methicillin-resistant
In short: (§2)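 MIC defined as lowest peptide level preventing visible growth after 20–24 h at 35°C. Candida tested in RPMI-1640 MOPS; bacteria in Mueller Hinton broth, optionally with 10% lysed horse blood and/or divalent cations. Final peptide range 64-0.125 μg/mL, starting inoculum 5 x 10^5 CFU/mL, per CLSI M07-A/M26A.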

[4] = system: Staphylococcus aureus clinical isolate – animal, penicillin-resistant (PRSA); format: cell-based; conditions: clinical isolate – animal, penicillin-resistant (PRSA)
In short: as §2

S. aureus ATCC 29213 = experiment: Killing kinetics (time kill assay); format: cell-based, Staphylococcus aureus; conditions: MHB, 35°C, sampled 1-24 hours, n = 2
Experimental: The killing kinetics assay was conducted using mid-logarithmic phase cultures of E. coli ATCC 25922 and S. aureus ATCC 29213 in MHB. Cultures were adjusted to a 0.5 McFarland standard, diluted in MHB, and then 100µL was added to each culture tube containing 10mL pre-warmed MHB to give a final inoculum concentration of 5 x 10^5 CFU/mL. A sterility control of 100uL MHB, growth control (no cathelicidin), and vehicle control (DMSO) were also included. Furthermore, 10uL was immediately removed from the growth control tube, diluted 1/1000 in saline and 100µL plated onto MHA in duplicate to confirm inoculum density. To establish colony counts from 0 hours of cathelicidin treatment, 200µL was removed from each culture tube and serially diluted ten-fold in saline from 10^0 to […] in a total volume of 200µL. Then, 10µL of each dilution was spotted onto MHA in duplicate, which were incubated at 35°C for 24 hours.
All culture tubes were then incubated at 35°C static. At 1, 2, 4, 6, 8, 10, 12, and 24 hours post-cathelicidin treatment, 200µL was removed from each culture tube for dilution and plated on MHA as described above. […] Counts of duplicates were averaged, and the log10 CFU/mL graphed against time. This was used as input for one-way ANOVA (p < 0.05) followed by Dunnett’s post hoc test.

[5] = system: Staphylococcus aureus clinical isolate - animal; experiment: microbe, parasite or virus in culture; format: cell-based; conditions: clinical isolate - animal
In short: as §1

[6] = system: Staphylococcus aureus ATCC 29213; experiment: microbe, parasite or virus in culture; format: cell-based; conditions: ATCC 29213
In short: as §1

[7] = system: Escherichia coli clinical isolate - animal; experiment: microbe, parasite or virus in culture; format: cell-based; conditions: clinical isolate - animal
In short: as §1

[8] = system: Escherichia coli ATCC 25922; experiment: microbe, parasite or virus in culture; format: cell-based; conditions: ATCC 25922
In short: as §1

[9] = system: Pseudomonas aeruginosa clinical isolate - animal; experiment: microbe, parasite or virus in culture; format: cell-based; conditions: clinical isolate - animal; read-out: MIC P. aeruginosa
In short: as §1

[10] = system: Pseudomonas aeruginosa ATCC 27853; experiment: microbe, parasite or virus in culture; format: cell-based; conditions: ATCC 27853; read-out: MIC P. aeruginosa ATCC
In short: as §1

[11] = system: Streptococcus pneumoniae ATCC 49619; experiment: microbe, parasite or virus in culture; format: cell-based; conditions: ATCC 49619; read-out: MIC S. pneumoniae ATCC
In short: as §2

[12] = system: Streptococcus agalactiae Clinical isolate - animal; experiment: microbe, parasite or virus in culture; format: cell-based; conditions: clinical isolate - animal
In short: as §2

[13] = system: Streptococcus agalactiae ATCC 12386; experiment: microbe, parasite or virus in culture; format: cell-based; conditions: ATCC 12386; read-out: MIC S. agalactiae ATCC
In short: as §2

[14] = antimicrobial screening Phase I, Y/N summary over fungi tested, broth microdilution
[15] = antimicrobial screening Phase I, Y/N summary over bacteria tested, broth microdilution

Compound: RQIYDQAKYDILTGILRNF [BepeCath8]
- Antifungal (MIC <64ug/mL) [1, 14]: N (Antifungal (MIC <64ug/mL))
- Antibacterial (MIC <64ug/mL) [2, 15]: N (Antibacterial (MIC <64ug/mL))

Compound: RQRRLPFLGDPRRFPRPRGRPQPDPRQGRPN [MAP4, marsupial ancestral peptide, predicted by ANCESCON and GASP, synthesized]
- Antifungal (MIC <64ug/mL) [1, 14]: N (Antifungal (MIC <64ug/mL))
- Antibacterial (MIC <64ug/mL) [2, 15]: N (Antibacterial (MIC <64ug/mL))

Compound: CC[C@H](C)[C@H](NC(=O)[C@H](CCCCN)NC(=O)[C@H](CC(N)=O)NC(=O)[C@H](CC(C)C)NC(=O)CNC(=O)[C@H](CCC(N)=O)NC(=O)CNC(=O)[C@H](CC(C)C)NC(=O)[C@H](CCCCN)NC(=O)[C@H](CCSC)NC(=O)[C@H](Cc1c[nH]c2ccccc12)NC(=O)CNC(=O)[C@H](CCCCN)NC(=O)[C@H](CCCCN)NC(=O)[C@H](CCC(=O)O)NC(=O)[C@H](Cc1c[nH]cn1)NC(=O)[C@H](CCCNC(=N)N)NC(=O)[C@H](CCCCN)NC(=O)[C@@H](NC(=O)[C@@H](N)CCCCN)[C@@H](C)CC)C(=O)N[C@@H](CC(C)C)C(=O)N[C@@H](CCCCN)C(=O)N[C@@H](Cc1c[nH]cn1)C(=O)N[C@@H](Cc1ccccc1)C(=O)N[C@@H](CC(N)=O)C(=O)N[C@H](C(=O)N[C@@H](CC(=O)O)C(=O)N[C@@H](Cc1ccccc1)C(=O)N[C@@H](CS)C(=O)N[C@@H](CC(C)C)C(=O)N[C@@H](CC(N)=O)C(=O)N[C@@H](CS)C(=O)O)[C@@H](C)CC [LalaCath3] (H-KIKRHEKKGWMKLGQGLNKILKHFNIDFCLNC-OH; N-terminus and C-terminus assumed)
- MBC MRSA [3]: 4.1 µM (≈ 15.8 µg/mL)
- MIC MRSA [3]: 2 µM (≈ 7.68 µg/mL)
- MBC PRSA [4]: 2 µM (≈ 7.68 µg/mL)
- MIC PRSA [4]: 1 µM (≈ 3.84 µg/mL)
- Number of hours to cause a significant reduction in log CFU/mL of S. aureus ATCC (p < 0.05) (S. aureus ATCC 29213; 0.5x MIC): 4 hours
- Number of hours to cause a significant reduction in log CFU/mL of S. aureus ATCC (p < 0.05) (S. aureus ATCC 29213; 2x MIC): 2 hours
- Number of hours to cause a significant reduction in log CFU/mL of S. aureus ATCC (p < 0.05) (S. aureus ATCC 29213; MIC): 4 hours
- MBC S. aureus [5]: 4.1 µM (≈ 15.8 µg/mL)
- MIC ([5]; read-out: MIC S. aureus): 2 µM (≈ 7.68 µg/mL)
- MIC ([5]; read-out: MIC in the presence of cations S. aureus): 2 µM
- MBC S. aureus ATCC [6]: 4.1 µM (≈ 15.8 µg/mL)
- MIC ([6]; read-out: MIC S. aureus ATCC): 2 µM (≈ 7.68 µg/mL)
- MIC ([6]; read-out: MIC in the presence of cations S. aureus ATCC): 2 µM
- MBC E. coli [7]: 16.6 (16.6)^>16.6 µM
- MIC E. coli [7]: 16.6 (16.6)^>16.6 µM
- MIC in the presence of cations E. coli [7]: 16.6 (16.6)^>16.6 µM
- MBC E. coli ATCC [8]: 8.3 (8.3)^8.3 µM
- MIC E. coli ATCC [8]: 8.3 (8.3)^8.3 µM
- MIC in the presence of cations E. coli ATCC [8]: 8.3 (8.3)^8.3 µM
- MIC [9]: >16.6 µM
- MIC [10]: >16.6 µM
- MIC [11]: >16.6 µM
- MBC S. agalactiae [12]: 8.3 µM (≈ 31.9 µg/mL)
- MIC S. agalactiae [12]: 8.3 µM (≈ 31.9 µg/mL)
- MIC [13]: >16.6 µM

Compound: KRGLWESLKRKATKLGDDIRNTLRNFKIKVPVPRQWPIRV [MaruCath4p]
- Antifungal (MIC <64ug/mL) ([1]; broth microdilution screening, phase I, Y/N summary over the fungi tested): N (Antifungal (MIC <64ug/mL))
- Antibacterial (MIC <64ug/mL) ([2]; broth microdilution screening, phase I or II, Y/N summary over the bacteria tested): Y (Antibacterial (MIC <64ug/mL))
